Where two headings read alike, the source gives them in different places.
Assays:
HCT116 MTAP null cells = test: HCT116 MTAP null cell line proliferation (CellTiter-Glo cell viability, 6 days); type: cell-based; settings: HCT116 MTAP null cells, 6 days of treatment, CellTiter-Glo cell viability, read-out: HCT-116 MTAP null IC50
In short: (§1)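 Viability by CellTiter-Glo after 6 days' drug exposure in wild-type HCT116 and its MTAP-null knockout, with DMSO-only control. Dosing used either 1:3 steps (top 1 or 10 μM) or 22 points in 1:2 steps (top 10 or 50 μM). IC50 taken where the fitted curve crosses 50% of control.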

HCT116 WT cells = test: HCT116 WT cell line proliferation (CellTiter-Glo cell viability, 6 days); type: cell-based; settings: HCT116 WT (parent) cells, 6 days of treatment, CellTiter-Glo cell viability, read-out: HCT-116 WT IC50
In short: as §1

Compound | IC50 (HCT116 MTAP null cells) [nM] | IC50 (HCT116 WT cells) [nM] | IC50 (HCT116 MTAP null cells; HCT116-MTAP null, 144 h) [nM] | IC50 (HCT116 WT cells; Homo sapiens, HCT-116, 144 h) [nM]
Nc1nc2cc(F)c(C(=O)N3CCOCC3c3ccc(F)c(C(F)(F)F)c3)cc2c2c1COC2 (racemic) [Example 342, (4-amino-7-fluoro-1,3-dihydrofuro[3,4-c]quinolin-8-yl)((3R)-3-(4-fluoro-3-(trifluoromethyl)phenyl)-4-morpholinyl)methanone and (4-amino-7-fluoro-1,3-dihydrofuro[3,4-c]quinolin-8-yl)((3S)-3-(4-fluoro-3-(trifluoromethyl)phenyl)-4-morpholinyl)methanone] | 117 | 6170 |  | 
C[C@H]1OCc2c1c(N)nc1ccc(C(=O)N3CCOC[C@H]3c3ccc(C(F)(F)F)cn3)cc21 (racemic) [Example 343, ((3R)-4-amino-3-methyl-1,3-dihydrofuro[3,4-c]quinolin-8-yl)((3R)-3-(5-(trifluoromethyl)-2-pyridinyl)-4-morpholinyl)methanone and ((3R)-4-amino-3-methyl-1,3-dihydrofuro[3,4-c]quinolin-8-yl)((3S)-3-(5-(trifluoromethyl)-2-pyridinyl)-4-morpholinyl)methanone] |  |  | 308 | 16200
Nc1nc2cc(Cl)c(C(=O)N3CCOCC3c3ccc(C(F)(F)F)cn3)cc2c2c1COC2 (racemic) [Example 344, (4-amino-7-chloro-1,3-dihydrofuro[3,4-c]quinolin-8-yl)((3R)-3-(5-(trifluoromethyl)-2-pyridinyl)-4-morpholinyl)methanone and (4-amino-7-chloro-1,3-dihydrofuro[3,4-c]quinolin-8-yl)((3S)-3-(5-(trifluoromethyl)-2-pyridinyl)-4-morpholinyl)methanone] |  |  | 58 | 1410
Nc1nc2cnc(C(=O)N3CCOCC3c3ccc(F)c(OC(F)(F)F)c3)cc2c2c1COC2 (racemic) [Example 345, (4-amino-1,3-dihydrofuro[3,4-c][1,7]naphthyridin-8-yl)((3R)-3-(4-fluoro-3-(trifluoromethoxy)phenyl)-4-morpholinyl)methanone and (4-amino-1,3-dihydrofuro[3,4-c][1,7]naphthyridin-8-yl)((3S)-3-(4-fluoro-3-(trifluoromethoxy)phenyl)-4-morpholinyl)methanone] |  |  | 346 | 19100
Nc1nc2cc(Cl)c(C(=O)N3CCOCC3c3ccc(F)c(OC(F)(F)F)c3)cc2c2c1COC2 (racemic) [Example 346, (4-amino-7-chloro-1,3-dihydrofuro[3,4-c]quinolin-8-yl)((3R)-3-(4-fluoro-3-(trifluoromethoxy)phenyl)-4-morpholinyl)methanone and (4-amino-7-chloro-1,3-dihydrofuro[3,4-c]quinolin-8-yl)((3S)-3-(4-fluoro-3-(trifluoromethoxy)phenyl)-4-morpholinyl)methanone] |  |  | 62 | 1950
Nc1nc2cc(F)c(C(=O)N3CCOCC3c3ccc(F)c(OC(F)(F)F)c3)cc2c2c1COC2 (racemic) [Example 347, (4-amino-7-fluoro-1,3-dihydrofuro[3,4-c]quinolin-8-yl)((3R)-3-(4-fluoro-3-(trifluoromethoxy)phenyl)-4-morpholinyl)methanone and (4-amino-7-fluoro-1,3-dihydrofuro[3,4-c]quinolin-8-yl)((3S)-3-(4-fluoro-3-(trifluoromethoxy)phenyl)-4-morpholinyl)methanone] |  |  | 325 | 4700
Nc1nc2ccc(C(=O)N3CCOCC3c3ccc(F)c(C(F)(F)F)c3)cc2c2c1COC2 (racemic) [Example 348, (4-amino-1,3-dihydrofuro[3,4-c]quinolin-8-yl)((3R)-3-(4-fluoro-3-(trifluoromethyl)phenyl)-4-morpholinyl)methanone and (4-amino-1,3-dihydrofuro[3,4-c]quinolin-8-yl)((3S)-3-(4-fluoro-3-(trifluoromethyl)phenyl)-4-morpholinyl)methanone] |  |  | 784 | 13000
Nc1nc2cnc(C(=O)N3CCOCC3c3ccc(F)c(C(F)(F)F)c3)cc2c2c1COC2 (racemic) [Example 349, (4-amino-1,3-dihydrofuro[3,4-c][1,7]naphthyridin-8-yl)((3R)-3-(4-fluoro-3-(trifluoromethyl)phenyl)-4-morpholinyl)methanone and (4-amino-1,3-dihydrofuro[3,4-c][1,7]naphthyridin-8-yl)((3S)-3-(4-fluoro-3-(trifluoromethyl)phenyl)-4-morpholinyl)methanone] | 505 | 20800 |  | 
Nc1nc2cc(Cl)c(C(=O)N3CCOCC3c3ccc(F)c(C(F)(F)F)c3)cc2c2c1COC2 (racemic) [Example 350, (4-amino-7-chloro-1,3-dihydrofuro[3,4-c]quinolin-8-yl)((3R)-3-(4-fluoro-3-(trifluoromethyl)phenyl)-4-morpholinyl)methanone and (4-amino-7-chloro-1,3-dihydrofuro[3,4-c]quinolin-8-yl)((3S)-3-(4-fluoro-3-(trifluoromethyl)phenyl)-4-morpholinyl)methanone] | 107 | 2890 |  | 
Nc1nc2cc(F)c(C(=O)N3CCOCC3c3ccc(C(F)(F)F)cn3)cc2c2c1COC2 (racemic) [Example 351, (4-amino-7-fluoro-1,3-dihydrofuro[3,4-c]quinolin-8-yl)((3R)-3-(5-(trifluoromethyl)-2-pyridinyl)-4-morpholinyl)methanone and (4-amino-7-fluoro-1,3-dihydrofuro[3,4-c]quinolin-8-yl)((3S)-3-(5-(trifluoromethyl)-2-pyridinyl)-4-morpholinyl)methanone] |  |  | 129 | 6000
Nc1nc2cc(F)c(C(=O)N3CCOCC3c3ccnc(C(F)(F)F)c3)cc2c2c1COC2 (racemic) [Example 352, (4-amino-7-fluoro-1,3-dihydrofuro[3,4-c]quinolin-8-yl)((3R)-3-(2-(trifluoromethyl)-4-pyridinyl)-4-morpholinyl)methanone and (4-amino-7-fluoro-1,3-dihydrofuro[3,4-c]quinolin-8-yl)((3S)-3-(2-(trifluoromethyl)-4-pyridinyl)-4-morpholinyl)methanone] | 717 | 20700 |  | 
Nc1nc2cc(Cl)c(C(=O)N3CCOCC3c3ccnc(C(F)(F)F)c3)cc2c2c1COC2 (racemic) [Example 353, (4-amino-7-chloro-1,3-dihydrofuro[3,4-c]quinolin-8-yl)((3R)-3-(2-(trifluoromethyl)-4-pyridinyl)-4-morpholinyl)methanone and (4-amino-7-chloro-1,3-dihydrofuro[3,4-c]quinolin-8-yl)((3S)-3-(2-(trifluoromethyl)-4-pyridinyl)-4-morpholinyl)methanone] | 234 | 6890 |  | 
C[C@H]1OCc2c1c(N)nc1ccc(C(=O)N3CCOC[C@@H]3c3ccnc(C(F)(F)F)c3)cc21 (racemic) [Example 354, ((3R)-4-amino-3-methyl-1,3-dihydrofuro[3,4-c]quinolin-8-yl)((3R)-3-(2-(trifluoromethyl)-4-pyridinyl)-4-morpholinyl)methanone and ((3R)-4-amino-3-methyl-1,3-dihydrofuro[3,4-c]quinolin-8-yl)((3S)-3-(2-(trifluoromethyl)-4-pyridinyl)-4-morpholinyl)methanone] |  |  | 487 | > 10000
C[C@@H]1OCc2c1c(N)nc1cnc(C(=O)N3CCOC[C@H]3c3ccc(F)c(C(F)(F)F)c3)cc21 (racemic) [Example 355, ((3S)-4-amino-3-methyl-1,3-dihydrofuro[3,4-c][1,7]naphthyridin-8-yl)((3R)-3-(4-fluoro-3-(trifluoromethyl)phenyl)-4-morpholinyl)methanone and ((3S)-4-amino-3-methyl-1,3-dihydrofuro[3,4-c][1,7]naphthyridin-8-yl)((3S)-3-(4-fluoro-3-(trifluoromethyl)phenyl)-4-morpholinyl)methanone] |  |  | 4060 | > 10000
C[C@H]1OCc2c1c(N)nc1cnc(C(=O)N3CCOC[C@H]3c3ccc(F)c(C(F)(F)F)c3)cc21 (racemic) [Example 356, ((3R)-4-amino-3-methyl-1,3-dihydrofuro[3,4-c][1,7]naphthyridin-8-yl)((3R)-3-(4-fluoro-3-(trifluoromethyl)phenyl)-4-morpholinyl)methanone and ((3R)-4-amino-3-methyl-1,3-dihydrofuro[3,4-c][1,7]naphthyridin-8-yl)((3S)-3-(4-fluoro-3-(trifluoromethyl)phenyl)-4-morpholinyl)methanone] |  |  | 257 | > 10000
C[C@H]1OCc2c1c(N)nc1cnc(C(=O)N3CCOC[C@H]3c3ccc(C(F)(F)F)cn3)cc21 (racemic) [Example 357, ((3R)-4-amino-3-methyl-1,3-dihydrofuro[3,4-c][1,7]naphthyridin-8-yl)((3R)-3-(5-(trifluoromethyl)-2-pyridinyl)-4-morpholinyl)methanone and ((3R)-4-amino-3-methyl-1,3-dihydrofuro[3,4-c][1,7]naphthyridin-8-yl)((3S)-3-(5-(trifluoromethyl)-2-pyridinyl)-4-morpholinyl)methanone] |  |  | 175 | 9390
C[C@H]1OCc2c1c(N)nc1cnc(C(=O)N3CCOC[C@H]3c3ccc(F)c(OC(F)(F)F)c3)cc21 (racemic) [Example 358, ((3R)-4-amino-3-methyl-1,3-dihydrofuro[3,4-c][1,7]naphthyridin-8-yl)((3R)-3-(4-fluoro-3-(trifluoromethoxy)phenyl)-4-morpholinyl)methanone and ((3R)-4-amino-3-methyl-1,3-dihydrofuro[3,4-c][1,7]naphthyridin-8-yl)((3S)-3-(4-fluoro-3-(trifluoromethoxy)phenyl)-4-morpholinyl)methanone] |  |  | 313 | 14000

Reference: US11845760B2, “PRMT5 inhibitors” (AMGEN INC., priority 2020, dated 2023)
